From US8916517B2, “Analogs of pituitary adenylate cyclase-activating polypeptide (PACAP) and methods for their use” (The Administrators of the Tulane Educational Fund, priority 2009, dated 2014)
Entries after “also recorded” stand apart in the source; their conditions may differ. Non-standard residues stand in square brackets, D forms with d. No end group written: not given here. Pip = O=C(O)[C@@H]1CCCCN1; Aib = CC(C)(N)C(=O)O

What was measured:
[1] = system: light-chain immunoglobulin-secreting human multiple myeloma cells; test: Inhibition of proliferation of light-chain immunoglobulin-secreting human multiple myeloma cells (bromodeoxyuridine incorporation); assay type: cell-based; details: inhibition of myeloma cell proliferation
Experimental: FIG. 3 is a table listing the EC50 for the inhibitory effects of PACAP38, PACAP27, VIP, and eight novel PACAP analogs on the proliferation of light-chain immunoglobulin-secreting myeloma cells. The light-chain immunoglobulin-secreting human multiple myeloma cells were cultured in RPMI 1640 medium supplemented with 10% non-inactivated fetal bovine serum and 0.05 mM 2-mercaptoethanol. The effects of PACAP38, PACAP27, VIP, and the eight novel PACAP analogs on myeloma cell proliferation were assessed by determining incorporation of bromodeoxyuridine into DNA during cell division. The number of myeloma cells approximately doubled during the 24-hour incubation period in the absence of treatment with PACAP-like peptides. Five different concentrations, ranging from 10^-13 M to 10^-5 M, were tested for PACAP38, PACAP27, VIP, and each of the eight novel PACAP analogs. The EC50 was calculated from the concentration response curve using the software package Prism (Graph Pad, San Diego, CA). Each value represents the mean of four-six determinations per experiment. The EC50 for PACAP38 is based on the average of four separate experiments, while the EC50 for PACAP27 and [Pip^3,Aib ^16,28,Ala^17,Lys^34,D-LysIPACAP 38 (SEQ ID NO: 4) is based on the average of two separate experiments.
FIG. 4 is a graph showing a representative concentration response curve from a single experiment on the inhibitory effects PACAP38 and six PACAP38 analogs on the proliferation of light-chain immunoglobulin-secreting human myeloma cells. Each value represents the mean plus/minus the standard error of four-six determinations. Note that replacing pipecolic acid in position 3 of the novel analogs with either nipecotic acid or isonipecotic acid results in an analog with more than four orders of magnitude lower inhibitory potency.
The effects of PACAP38, PACAP27, VIP, and PACAP analogs on myeloma cell proliferation were assessed by determining incorporation bromodeoxyuridine into DNA during cell division. […]

[2] = system: rat renal proximal tubule epithelial cells; test: Reduction of cisplatin-induced apoptotic cell death of renal proximal tubule epithelial cells (histone-associated DNA fragmentation); assay type: cell-based; details: cisplatin 24 hours, comparable concentrations
[3] = system: ischemia/reperfusion injury to the kidney; test: Serum creatinine after renal ischemia/reperfusion injury in mice; assay type: in vivo, male C57BL/6 mice; details: 20 micrograms i.p. 1, 24 and 48 h after start of reperfusion; 45 min renal artery clamping; 72 hours
Experimental: FIG. 6 is a graph showing the effects of PACAP38 and two novel PACAP analogs on serum creatinine levels in mice following ischemia/reperfusion injury to the kidney. The renal artery in male C57BL/6 mice was clamped bilaterally for 45 minutes in all mice except for the sham-operated mice. Twenty micrograms of PACAP38 or one of the PACAP analogs were given intraperitoneally 1 hour after the start of reperfusion and additional doses were given at 24 and 48 hours after the initial dose. The sham-operated group of mice was injected intraperitoneally with PACAP38 on the same schedule as the mice subjected to ischemia/reperfusion. The control group of mice was injected intraperitoneally with the same volume of saline as for the injections of PACAP38 on the same schedule. All of the mice were euthanized 24 hours after the final injection of saline, PACAP38 or one of the novel PACAP analogs. Each value represents the mean plus/minus the standard error of four determinations. **p<0.01 and *p<0.05 compared to the ischemia/reperfusion group treated with saline. I/R, ischemia/reperfusion; sham, sham-operated.

[4] = system: human myeloma cell line (MM.1 R); test: Proliferation of dexamethasone-resistant myeloma cell line MM.1R (bromodeoxyuridine incorporation); assay type: cell-based; details: FIG. 9
Experimental: FIG. 9 is a graph showing the effects PACAP38, [Pip^3,Ala^14,17,Aib^16,28,Lys^34,D-Lys^38] PACAP38(SEQ ID NO: 6) and dexamethasone on the proliferation of light-chain immunoglobulin-secreting human myeloma cell line (MM.1 R) that was derived from a patient who was being treated for multiple myeloma with a dexamethasome-containing regimen. The light-chain immunoglobulin-secreting multiple myeloma cells were cultured in RPMI 1640 medium supplemented with 10% non-inactivated fetal bovine serum and 0.05mM 2-mercaptoethanol. The effects of dexamethasone, PACAP38 and the novel PACAP38 analog on cell proliferation were assessed by determining the incorporation of bromodeoxyuridine into DNA during cell division. Each value represents the mean plus/minus the standard error of four-six determination. The cell lines in FIGS. 8 and 9 were obtained from the same patient at different stages of the treatment (Greenstein et al., Exp Hematol 31 :271-282, 2003).

[5] = system: human renal proximal tubule epithelial cells; test: Reduction of gentamicin-induced apoptotic cell death of human renal proximal tubule epithelial cells; assay type: cell-based; details: gentamicin 24 hours
Experimental: The inhibitory effects of PACAP38 and the novel PACAP analog on apoptotic cell death was assessed by the quantitative determination of cytoplasmic histone-associated DNA-fragmentation (mono- and oligonucleosomes) after exposure to gentamicin for 24 hours. […] Each value represents the mean plus/minus the standard deviation of four determinations. **p<0.01 and *p<0.05 compared to the group treated only with gentamicin.

## PACAP27
[1]
  potency compared with PACAP38 or the novel PACAP38 analogs: significantly less potent

## [Pip^3,Aib^16,28,Ala^17,Lys^34,D-Lys^38]PACAP38 (HS[Pip]GIFTDSYSRYRK[Aib]AAVKKYLAAVL[Aib]KRYKQKVKN[dK]-NH2; N-terminus assumed; SMILES CC[C@H](C)[C@H](NC(=O)CNC(=O)[C@@H]1CCCCN1C(=O)[C@H](CO)NC(=O)[C@@H](N)Cc1c[nH]cn1)C(=O)N[C@@H](Cc1ccccc1)C(=O)N[C@H](C(=O)N[C@@H](CC(=O)O)C(=O)N[C@@H](CO)C(=O)N[C@@H](Cc1ccc(O)cc1)C(=O)N[C@@H](CO)C(=O)N[C@@H](CCCNC(=N)N)C(=O)N[C@@H](Cc1ccc(O)cc1)C(=O)N[C@@H](CCCNC(=N)N)C(=O)N[C@@H](CCCCN)C(=O)NC(C)(C)C(=O)N[C@@H](C)C(=O)N[C@@H](C)C(=O)N[C@H](C(=O)N[C@@H](CCCCN)C(=O)N[C@@H](CCCCN)C(=O)N[C@@H](Cc1ccc(O)cc1)C(=O)N[C@@H](CC(C)C)C(=O)N[C@@H](C)C(=O)N[C@@H](C)C(=O)N[C@H](C(=O)N[C@@H](CC(C)C)C(=O)NC(C)(C)C(=O)N[C@@H](CCCCN)C(=O)N[C@@H](CCCNC(=N)N)C(=O)N[C@@H](Cc1ccc(O)cc1)C(=O)N[C@@H](CCCCN)C(=O)N[C@@H](CCC(N)=O)C(=O)N[C@@H](CCCCN)C(=O)N[C@H](C(=O)N[C@@H](CCCCN)C(=O)N[C@@H](CC(N)=O)C(=O)N[C@H](CCCCN)C(N)=O)C(C)C)C(C)C)C(C)C)[C@@H](C)O) [SEQ ID NO:4]
[2]
  cytoprotective potency compared with PACAP38: either as effective or more effective than PACAP38

## [Pip^3,Ala^14,17,Aib^16,28,Lys^34,D-Lys^38]PACAP38 (HS[Pip]GIFTDSYSRYAK[Aib]AAVKKYLAAVL[Aib]KRYKQKVKN[dK]-NH2; N-terminus assumed; SMILES CC[C@H](C)[C@H](NC(=O)CNC(=O)[C@@H]1CCCCN1C(=O)[C@H](CO)NC(=O)[C@@H](N)Cc1c[nH]cn1)C(=O)N[C@@H](Cc1ccccc1)C(=O)N[C@H](C(=O)N[C@@H](CC(=O)O)C(=O)N[C@@H](CO)C(=O)N[C@@H](Cc1ccc(O)cc1)C(=O)N[C@@H](CO)C(=O)N[C@@H](CCCNC(=N)N)C(=O)N[C@@H](Cc1ccc(O)cc1)C(=O)N[C@@H](C)C(=O)N[C@@H](CCCCN)C(=O)NC(C)(C)C(=O)N[C@@H](C)C(=O)N[C@@H](C)C(=O)N[C@H](C(=O)N[C@@H](CCCCN)C(=O)N[C@@H](CCCCN)C(=O)N[C@@H](Cc1ccc(O)cc1)C(=O)N[C@@H](CC(C)C)C(=O)N[C@@H](C)C(=O)N[C@@H](C)C(=O)N[C@H](C(=O)N[C@@H](CC(C)C)C(=O)NC(C)(C)C(=O)N[C@@H](CCCCN)C(=O)N[C@@H](CCCNC(=N)N)C(=O)N[C@@H](Cc1ccc(O)cc1)C(=O)N[C@@H](CCCCN)C(=O)N[C@@H](CCC(N)=O)C(=O)N[C@@H](CCCCN)C(=O)N[C@H](C(=O)N[C@@H](CCCCN)C(=O)N[C@@H](CC(N)=O)C(=O)N[C@H](CCCCN)C(N)=O)C(C)C)C(C)C)C(C)C)[C@@H](C)O) [SEQ ID NO:6]
[2]
  cytoprotective potency compared with PACAP38: either as effective or more effective than PACAP38
[3]
  reversal of the rise in serum creatinine caused by ischemia/reperfusion: almost completely reversed
[4]
  sensitivity of cell proliferation: still sensitive

## [Pip^3,Ala^15,17,Aib^16,28,Lys^34,D-Lys^38]PACAP38 (HS[Pip]GIFTDSYSRYRA[Aib]AAVKKYLAAVL[Aib]KRYKQKVKN[dK]-NH2; N-terminus assumed; SMILES CC[C@H](C)[C@H](NC(=O)CNC(=O)[C@@H]1CCCCN1C(=O)[C@H](CO)NC(=O)[C@@H](N)Cc1c[nH]cn1)C(=O)N[C@@H](Cc1ccccc1)C(=O)N[C@H](C(=O)N[C@@H](CC(=O)O)C(=O)N[C@@H](CO)C(=O)N[C@@H](Cc1ccc(O)cc1)C(=O)N[C@@H](CO)C(=O)N[C@@H](CCCNC(=N)N)C(=O)N[C@@H](Cc1ccc(O)cc1)C(=O)N[C@@H](CCCNC(=N)N)C(=O)N[C@@H](C)C(=O)NC(C)(C)C(=O)N[C@@H](C)C(=O)N[C@@H](C)C(=O)N[C@H](C(=O)N[C@@H](CCCCN)C(=O)N[C@@H](CCCCN)C(=O)N[C@@H](Cc1ccc(O)cc1)C(=O)N[C@@H](CC(C)C)C(=O)N[C@@H](C)C(=O)N[C@@H](C)C(=O)N[C@H](C(=O)N[C@@H](CC(C)C)C(=O)NC(C)(C)C(=O)N[C@@H](CCCCN)C(=O)N[C@@H](CCCNC(=N)N)C(=O)N[C@@H](Cc1ccc(O)cc1)C(=O)N[C@@H](CCCCN)C(=O)N[C@@H](CCC(N)=O)C(=O)N[C@@H](CCCCN)C(=O)N[C@H](C(=O)N[C@@H](CCCCN)C(=O)N[C@@H](CC(N)=O)C(=O)N[C@H](CCCCN)C(N)=O)C(C)C)C(C)C)C(C)C)[C@@H](C)O) [SEQ ID NO:5]
[2]
  cytoprotective potency compared with PACAP38: either as effective or more effective than PACAP38
[3]
  reversal of the rise in serum creatinine caused by ischemia/reperfusion: almost completely reversed

## [Pip^3]PACAP38 (HS[Pip]GIFTDSYSRYRKQMAVKKYLAAVLGKRYKQRVKNK-NH2; N-terminus assumed; SMILES CC[C@H](C)[C@H](NC(=O)CNC(=O)[C@@H]1CCCCN1C(=O)[C@H](CO)NC(=O)[C@@H](N)Cc1c[nH]cn1)C(=O)N[C@@H](Cc1ccccc1)C(=O)N[C@H](C(=O)N[C@@H](CC(=O)O)C(=O)N[C@@H](CO)C(=O)N[C@@H](Cc1ccc(O)cc1)C(=O)N[C@@H](CO)C(=O)N[C@@H](CCCNC(=N)N)C(=O)N[C@@H](Cc1ccc(O)cc1)C(=O)N[C@@H](CCCNC(=N)N)C(=O)N[C@@H](CCCCN)C(=O)N[C@@H](CCC(N)=O)C(=O)N[C@@H](CCSC)C(=O)N[C@@H](C)C(=O)N[C@H](C(=O)N[C@@H](CCCCN)C(=O)N[C@@H](CCCCN)C(=O)N[C@@H](Cc1ccc(O)cc1)C(=O)N[C@@H](CC(C)C)C(=O)N[C@@H](C)C(=O)N[C@@H](C)C(=O)N[C@H](C(=O)N[C@@H](CC(C)C)C(=O)NCC(=O)N[C@@H](CCCCN)C(=O)N[C@@H](CCCNC(=N)N)C(=O)N[C@@H](Cc1ccc(O)cc1)C(=O)N[C@@H](CCCCN)C(=O)N[C@@H](CCC(N)=O)C(=O)N[C@@H](CCCNC(=N)N)C(=O)N[C@H](C(=O)N[C@@H](CCCCN)C(=O)N[C@@H](CC(N)=O)C(=O)N[C@@H](CCCCN)C(N)=O)C(C)C)C(C)C)C(C)C)[C@@H](C)O) [SEQ ID NO:12]
[5]
  cytoprotective potency, PACAP38 versus [Pip^3]PACAP38: less potent than PACAP38
[5]; various concentrations
  reduction in gentamicin-induced apoptotic cell death: significant dose-dependent reduction; also recorded: dose-dependent inhibition
